Assay results taken from publication PMC10529594, “Strasseriolides display in vitro and in vivo activity against trypanosomal parasites and cause morphological and size defects in Trypanosoma cruzi” (PLOS Neglected Tropical Diseases, 2023).
Several values for one entry are separate records, joined by “and”; a condition that tells them apart may be missing. Equal values may be shown once. Read-outs that look alike come from different tables or passages of the source.

Assays:
Plasmodium berghei = tested on: Plasmodium berghei; design: method as in PMID 34865639; conditions: Plasmodium berghei murine model; cited from earlier work
[1] = design: method as in PMID 34865639; conditions: cited from earlier work
T. cruzi trypomastigotes = assay: T. cruzi trypomastigote viability / rate of action assay (CellTiter-Glo bioluminescence); type: cell-based, Trypanosoma cruzi; conditions: for EC50: Trypanosoma cruzi; for EC90/EC50 / Hill slope: Trypomastigotes
Protocol: Tulahuen T. cruzi trypomastigotes were recovered 6 days post infection from the supernatant of harvested infected L6 cells cultures after 3 hours at 37°C. 90 μL of parasite culture at a density of 5 × 10^6 cells in RPMI 1640 media were dispensed into 96 Nunc flat bottom assay plates containing 10 μL of each compound.
Parasite viability was assessed upon 24, 48 and 72 hour incubation at 37°C in 5% CO2 by adding 50 μL of CellTiter-Glo viability reagent to white 96-well microplates. After signal stabilization, bioluminescence was read. Compound concentrations ranged from 0.1 μM to 50 μM and final maximal DMSO percentage in the well was 0.05%. Results were normalized to […] control columns in each plate.

L6 rat myoblast cells = assay: Cytotoxicity evaluation in L6 cells (resazurin); type: cell-based; conditions: Rattus norvegicus, Myoblast; 72 h, resazurin; read-out: EC50 L6
Protocol: One hundred microliters of supplemented RPMI 1640 medium containing the compounds and controls were added to L6 rat myoblast cells previously seeded (4,000 cells per well) in a 96-well microplate. After 72 hours at 37°C the viable cell number was determined by resazurin reduction. 20 μL of resazurin at 0.11 mg/mL in PBS 1X were added to each well and incubated in the dark for 2 hours at 37°C. Cell viability was estimated by measuring the final fluorescence at 570–590 nm in a Tecan Infinite F200 plate reader.

[2] = tested on: T. cruzi Tulahuen C4 intracellular amastigotes; assay: β-D-galactosidase transgenic T. cruzi assay (intracellular amastigotes in L6 cells, CPRG); type: cell-based; conditions: Trypanosoma cruzi
[3] = tested on: transgenic Trypanosoma cruzi Brazil strain expressing firefly luciferase; assay: In vivo efficacy, acute T. cruzi infection in BALB/c mice (luciferase imaging)
Protocol: In vivo experiments were performed at the Anti-infectives Screening Core Services facility of the New York University School of Medicine. The transgenic Trypanosoma cruzi Brazil strain expressing firefly luciferase was used. Groups of five female BALB/c mice were infected with 2 × 10^6 T. cruzi trypomastigotes. […] Quantification is based on luciferase activity of the parasites after i.p. injection of 150 mg/Kg D-luciferin potassium-salt in PBS. Luminescence is measured on the fifth day using an IVIS Lumina II imager.

[4] = tested on: intracellular T. cruzi amastigotes; assay: Rate of kill, intracellular T. cruzi amastigotes (CPRG, 96-well); type: cell-based, Trypanosoma cruzi; conditions: for EC90/EC50 / Hill slope / EC50: Amastigotes; for Growth inhibition (%), individual replicates / inhibition at 50 µM: T. cruzi amastigotes, 50 µM; for inhibition at 50 µM / EC50: Trypanosoma cruzi
Protocol: For rate of kill experiments, in vitro activity against intracellular T. cruzi amastigotes was analyzed at early time points: 24, 48 and 72 hours. The standard colorimetric transgenic assay was established in a 96-well format, with serial dilutions of compounds and 0.05% as the final maximal DMSO percentage per well. In these experiments L6 host cells were included as negative controls and CPRG conversion was monitored at 585 nm using a Versamax microplate reader (Molecular devices).

## C/C1=C\[C@H](C)C(=O)C[C@@H](O)/C(C)=C/[C@H](C)C[C@@H](C)CC[C@@H]([C@@H](C)C(=O)O)OC(=O)[C@@H](C)C1 [Strasseriolide C, strasseriolide C]
Plasmodium berghei
  in vivo antiprotozoal activity: exhibit in vivo antiprotozoal activity
[1]
  liver microsome clearance: medium
T. cruzi trypomastigotes; 24 h, 0.0976562 µM, untreated 165925
  RLU Average, trypomastigote viability: 163790 RLU
T. cruzi trypomastigotes; 24 h, 0.195312 µM, untreated 165925
  RLU Average, trypomastigote viability: 163102 RLU
T. cruzi trypomastigotes; 24 h, 0.390625 µM, untreated 165925
  RLU Average, trypomastigote viability: 158420 RLU
T. cruzi trypomastigotes; 24 h, 0.78125 µM, untreated 165925
  RLU Average, trypomastigote viability: 147331 RLU
T. cruzi trypomastigotes; 24 h, 1.5625 µM, untreated 165925
  RLU Average, trypomastigote viability: 130562 RLU
T. cruzi trypomastigotes; 24 h, 3.125 µM, untreated 165925
  RLU Average, trypomastigote viability: 103284 RLU
T. cruzi trypomastigotes; 24 h, 6.25 µM, untreated 165925
  RLU Average, trypomastigote viability: 45263 RLU
T. cruzi trypomastigotes; 24 h, 12.5 µM, untreated 165925
  RLU Average, trypomastigote viability: 26648 RLU
T. cruzi trypomastigotes; 24 h, 25 µM, untreated 165925
  RLU Average, trypomastigote viability: 23620 RLU
T. cruzi trypomastigotes; 24 h, 50 µM, untreated 165925
  RLU Average, trypomastigote viability: 23277 RLU
T. cruzi trypomastigotes; 48 h, 0.0976562 µM, untreated 141819
  RLU Average, trypomastigote viability: 140243 RLU
T. cruzi trypomastigotes; 48 h, 0.195312 µM, untreated 141819
  RLU Average, trypomastigote viability: 138438 RLU
T. cruzi trypomastigotes; 48 h, 0.390625 µM, untreated 141819
  RLU Average, trypomastigote viability: 137289 RLU
T. cruzi trypomastigotes; 48 h, 0.78125 µM, untreated 141819
  RLU Average, trypomastigote viability: 133179 RLU
T. cruzi trypomastigotes; 48 h, 1.5625 µM, untreated 141819
  RLU Average, trypomastigote viability: 131008 RLU
T. cruzi trypomastigotes; 48 h, 3.125 µM, untreated 141819
  RLU Average, trypomastigote viability: 112009 RLU
T. cruzi trypomastigotes; 48 h, 6.25 µM, untreated 141819
  RLU Average, trypomastigote viability: 31326 RLU
T. cruzi trypomastigotes; 48 h, 12.5 µM, untreated 141819
  RLU Average, trypomastigote viability: 8227 RLU
T. cruzi trypomastigotes; 48 h, 25 µM, untreated 141819
  RLU Average, trypomastigote viability: 5426 RLU
T. cruzi trypomastigotes; 48 h, 50 µM, untreated 141819
  RLU Average, trypomastigote viability: 4626 RLU
T. cruzi trypomastigotes; 72 h, 0.0976562 µM, untreated 100126
  RLU Average, trypomastigote viability: 97547 RLU
T. cruzi trypomastigotes; 72 h, 0.195312 µM, untreated 100126
  RLU Average, trypomastigote viability: 99515 RLU
T. cruzi trypomastigotes; 72 h, 0.390625 µM, untreated 100126
  RLU Average, trypomastigote viability: 99635 RLU
T. cruzi trypomastigotes; 72 h, 0.78125 µM, untreated 100126
  RLU Average, trypomastigote viability: 98868 RLU
T. cruzi trypomastigotes; 72 h, 1.5625 µM, untreated 100126
  RLU Average, trypomastigote viability: 97232 RLU
T. cruzi trypomastigotes; 72 h, 3.125 µM, untreated 100126
  RLU Average, trypomastigote viability: 91895 RLU
T. cruzi trypomastigotes; 72 h, 6.25 µM, untreated 100126
  RLU Average, trypomastigote viability: 17556 RLU
T. cruzi trypomastigotes; 72 h, 12.5 µM, untreated 100126
  RLU Average, trypomastigote viability: 4224 RLU
T. cruzi trypomastigotes; 72 h, 25 µM, untreated 100126
  RLU Average, trypomastigote viability: 2493 RLU
T. cruzi trypomastigotes; 72 h, 50 µM, untreated 100126
  RLU Average, trypomastigote viability: 1583 RLU
T. cruzi trypomastigotes; 24 h
  EC50: 3.29 µM
  EC90/EC50: 3.20
  Hill slope: 2.11
T. cruzi trypomastigotes; 48 h
  EC50: 4.45 µM
  EC90/EC50: 1.72
  Hill slope: 4.10
T. cruzi trypomastigotes; 72 h
  EC50: 4.77 µM
  EC90/EC50: 1.42
  Hill slope: 6.31
T. cruzi trypomastigotes; 48 h, listed as C
  Hill slope: 4.1
T. cruzi trypomastigotes; 48 h, listed as strasseriolide C
  EC90/EC50: 1.7
T. cruzi trypomastigotes; 72 h, listed as C
  Hill slope: 6.3
T. cruzi trypomastigotes; 72 h, listed as strasseriolide C
  EC90/EC50: 1.4
L6 rat myoblast cells
  EC50: > 50 µM
[2]; TULAHUEN, L6, T. cruzi amastigotes, 96-hour treatment, 0.00152588 µM, read-out: Growth inhibition (%) Average
  inhibition at 0.00152588 µM: 3.17%
[2]; TULAHUEN, L6, T. cruzi amastigotes, 96-hour treatment, 0.00305176 µM, read-out: Growth inhibition (%) Average
  inhibition at 0.00305176 µM: 3.11%
[2]; TULAHUEN, L6, T. cruzi amastigotes, 96-hour treatment, 0.00610352 µM, read-out: Growth inhibition (%) Average
  inhibition at 0.00610352 µM: 4.62%
[2]; TULAHUEN, L6, T. cruzi amastigotes, 96-hour treatment, 0.012207 µM, read-out: Growth inhibition (%) Average
  inhibition at 0.012207 µM: 9.25%
[2]; TULAHUEN, L6, T. cruzi amastigotes, 96-hour treatment, 0.0244141 µM, read-out: Growth inhibition (%) Average
  inhibition at 0.0244141 µM: 4.92%
[2]; TULAHUEN, L6, T. cruzi amastigotes, 96-hour treatment, 0.0488281 µM, read-out: Growth inhibition (%) Average
  inhibition at 0.0488281 µM: 5.95%
[2]; TULAHUEN, L6, T. cruzi amastigotes, 96-hour treatment, 0.0976562 µM, read-out: Growth inhibition (%) Average
  inhibition at 0.0976562 µM: 2.24%
[2]; TULAHUEN, L6, T. cruzi amastigotes, 96-hour treatment, 0.195312 µM, read-out: Growth inhibition (%) Average
  inhibition at 0.195312 µM: 5.83%
[2]; TULAHUEN, L6, T. cruzi amastigotes, 96-hour treatment, 0.390625 µM, read-out: Growth inhibition (%) Average
  inhibition at 0.390625 µM: 4.94%
[2]; TULAHUEN, L6, T. cruzi amastigotes, 96-hour treatment, 0.78125 µM, read-out: Growth inhibition (%) Average
  inhibition at 0.78125 µM: 4.24%
[2]; TULAHUEN, L6, T. cruzi amastigotes, 96-hour treatment, 1.5625 µM, read-out: Growth inhibition (%) Average
  inhibition at 1.5625 µM: 15.3%
[2]; TULAHUEN, L6, T. cruzi amastigotes, 96-hour treatment, 3.125 µM, read-out: Growth inhibition (%) Average
  inhibition at 3.125 µM: 61.8%
[2]; TULAHUEN, L6, T. cruzi amastigotes, 96-hour treatment, 6.25 µM, read-out: Growth inhibition (%) Average
  inhibition at 6.25 µM: 96%
[2]; TULAHUEN, L6, T. cruzi amastigotes, 96-hour treatment, 12.5 µM, read-out: Growth inhibition (%) Average
  inhibition at 12.5 µM: 110%
[2]; TULAHUEN, L6, T. cruzi amastigotes, 96-hour treatment, 25 µM, read-out: Growth inhibition (%) Average
  inhibition at 25 µM: 112%
[2]; TULAHUEN, L6, T. cruzi amastigotes, 96-hour treatment, 50 µM, read-out: Growth inhibition (%) Average
  inhibition at 50 µM: 115%
[2]; Tulahuen C4 in L6 cells, 96 h, CPRG
  EC50: 3.08 µM
[3]; 50 mg/kg i.p. 5 days from 72 h post-infection, 50 mg/kg
  Total counts, individual mouse: 1820000 and 5150000 and 2580000 and 6540000 and 3640000
[3]; 50 mg/kg i.p. 5 days from 72 h post-infection, vehicle average 8050000
  Total counts, Average: 3940000
[3]; acute infection model, 50 mg/Kg i.p., 5 days
  parasitaemia in vivo: lowers parasitaemia
[4]; 24 h
  EC90/EC50: 3.78
  Hill slope: 1.70
  EC50: 10.3 µM
[4]; 48 h
  EC90/EC50: 2.65
  Hill slope: 2.31
  EC50: 5.25 µM
[4]; 72 h
  EC90/EC50: 2.43
  Hill slope: 2.48
  EC50: 5.3 µM
[4]; 24 h, single replicates
  Growth inhibition (%), individual replicates: 74.7423%
[4]; 48 h, single replicates
  Growth inhibition (%), individual replicates: 94.7649% and 95.5652%
[4]; 72 h, single replicates
  Growth inhibition (%), individual replicates: 98.6747% and 99.1566%
[4]; 24 h, 24 h, average, read-out: Growth inhibition (%), Average
  inhibition at 50 µM: 73.4%
[4]; 24 h, 24 h, single replicates, read-out: Growth inhibition (%), individual replicates
  inhibition at 50 µM: 72.7%
[4]; 48 h, 48 h, average, read-out: Growth inhibition (%), Average
  inhibition at 50 µM: 94.9%
[4]; 48 h, 48 h, single replicates, read-out: Growth inhibition (%), individual replicates
  inhibition at 50 µM: 94.2%
[4]; 72 h, 72 h, average, read-out: Growth inhibition (%), Average
  inhibition at 50 µM: 98.8%
[4]; 72 h, 72 h, single replicates, read-out: Growth inhibition (%), individual replicates
  inhibition at 50 µM: 98.6%
